Measurements from patent EP1433485B1, “Alpha-MSH derived peptides for treating uro-genital conditions” (MSH Pharma, Inc., priority 1999, dated 2009).
Bridge positions count the residues as written; N and C are the ends. Peptide text beside a SMILES is read from it. I, II: the chains in the order shown.

How the values were obtained:
[1] = rabbit, in vivo; cited from earlier work
S. aureus (ATCC 29213) = assay: S. aureus viability estimated from colonies formed; assay type: cell-based, Staphylococcus aureus; conditions: Figure 1; two hours at 37°C; significant with peptide concentrations of 10^-12 to 10^-4 M
Procedure: (§1) Cultures of S. aureus (ATCC 29213) were obtained from the collection of the Department of Microbiology, Ospedale Maggiore di Milano. […] Cells were then washed in cold distilled water and diluted with HBSS to a concentration of 100 organisms/ml. One-milliliter aliquots were dispensed on blood agar plates and incubated for 24 hours at 37°C. Viability of the microorganisms was estimated from the colonies formed. In another set of experiments, 500 units of urokinase, a S. aureus growth enhancer, were also incubated with the bacteria (10^5/100ml) for four hours at 37°C in a shaking water bath together with the peptides.

C. albicans [2] = conditions: for ability of C albicans to form colony: Figure 3, 10^-12 to 10^-4 M, p<0.01 vs. control; for C. albicans viability: Figure 4, procedures of Example II
Procedure: (§2) Clinical isolates of C. albicans were also obtained from the collection of the Department of Microbiology, Ospedale Maggiore di Milano. Cultures of C. albicans were maintained on Sabouraud's agar slants and periodically transferred to Sabouraud's agar plates and incubated for 48 hours at 28°C. To prepare stationary growth-phase yeast, a colony was taken from the agar plate, transferred into 30 ml of Sabouraud-dextrose broth, and incubated for 72 hours at 32°C. Cells were centrifuged at 1000xg for ten minutes, and the pellet was washed twice with distilled water. Cells were counted and suspended in Hank's balanced salt solution ("HBSS") to the desired concentration.
(§3) Cells were then washed in cold distilled water and diluted with HBSS to a concentration of 100 organisms/ml. One-milliliter aliquots were then dispensed on blood agar plates and incubated for 48 hours at 37°C. The organism's viability was estimated from the number of colonies formed.
(§4) The reactions were stopped after three minutes by the addition of ice cold ethanol. cAMP levels were measured in duplicates using a commercial enzyme immunoassay kit (Amersham, United Kingdom) after extraction-via the liquid-phase method according to the manufacturer's instructions. […] The effects of forskolin and ddAdo on the ability of C. albicans to form colonies were determined according to the procedures described in Example II.

C. albicans [3] = assay: C. albicans viability estimated from colonies formed; assay type: cell-based, Candida albicans; conditions: Figure 9; ddAdo 25, 50 and 100 x 10^-5 M for two hours, then peptide two additional hours
Procedure: as §2, §3, §4

C. albicans [4] = assay: C. albicans germ tube formation induced by horse serum; assay type: cell-based, Candida albicans; conditions: peptide 10^-6 M, 60 minutes at 37°C after horse serum induction
Procedure: C. albicans from stationary phase cultures were washed twice with distilled water and suspended in HBSS to a final concentration of 2 x 10^6/ml. Hyphal growth was induced by addition of 10% inactivated horse serum (GIBCO/ BRL, Paisley, Great Britain) to yeast incubated for 45 minutes at 37°C with continuous shaking. […] The percentage of filamentous cells was evaluated under a light microscope with the aid of a hemocytometer. Experiments were run in triplicates and at least 200 cells were scored. Photomicrographs were taken with a MC100 camera attached to an Axioskop Zeiss microscope.

HIV-1 = conditions: Figure 11; 10^-5M; induced by IL-6, IL-10, PMA and in crowding condition
Excerpt: Chronically HIV-1 infected promonocytic U1 cell line is an in vitro model of latent HIV infection in monocytes. These cells carry two integrated proviral copies of HIV, and constitutive expression of HIV is very low. Viral replication, however, as measured by RNA transcription , p24 antigen, or reverse transcriptase release, can be activated with different stimuli such as TNF-α, IL-6, IL-10, PMA or crowding of cells.
Crowding was achieved by seeding U 1 cells at a density of 2x10^5/ml and maintaining them in culture at 37°C in 5% CO2 without changing media for seven days. Cultures activated with cytokines or PMA were maintained for only 48 hours. Supernatants were then removed by centrifugation and assayed for p24 antigen using commercially available ELISA kits from Cellular Products, Inc. in Buffalo, NY, USA. Reverse transcriptase releases were also measured using a commercially available kit, ELISA Retrosys RT assay from Innovagen, Lund, Sweden.

C. albicans [5] = assay: cAMP content of permeabilized C. albicans (enzyme immunoassay); assay type: cell-based, Candida albicans; conditions: Figure 7; 10^-6 M, three minutes; same order of magnitude as equimolar forskolin
Procedure: ID. NO. 4), (11-13) (SEQ. ID. NO. 1), or forskolin, an agent known to increase intracellular cAMP. The reactions were stopped after three minutes by the addition of ice cold ethanol. cAMP levels were measured in duplicates using a commercial enzyme immunoassay kit (Amersham, United Kingdom) after extraction-via the liquid-phase method according to the manufacturer's instructions.

HIV-1 RNA = assay: Northern Blot analysis of HIV-1 RNA in PMA stimulated U1 cells; assay type: cell-based; conditions: Figure 12
S. aureus = assay: urokinase induced growth of S. aureus; assay type: cell-based, Staphylococcus aureus; conditions: Figure 2; peptide 10^-6M; 500 units of urokinase, four hours at 37°C
Procedure: as §1

NF-κB = NF-κB binding activity in nuclear extracts of U1 cells (gel shift); assay type: cell-based, human
Procedure: For the determination of specific bands, nuclear extracts were first incubated with 100 fold excess unlabeled probe for five minutes, before incubation with a labeled probe. […] The gels were dried and autoradiographed.

C. albicans [6] = assay: killing of opsonized C. albicans by human neutrophils; assay type: cell-based, Candida albicans; conditions: Figure 6; 10^-12 to 10^-4 M; p<0.01
Procedure: Venous blood (20 ml) from healthy volunteers was anticoagulated with heparin. Neutrophils were then isolated using dextran sedimentation and centrifugation with Ficoll-Hypaque (Sigma Chemical Co., St. Louis, Missouri, USA). Erythrocytes were lysed via hypotonic shock with the resulting neutrophils representing at least 97% of the cell suspension. Cell viability; estimated by trypan blue exclusion, was greater than 98%. Neutrophils were resuspended in HBSS for the experiments. […] ID. NO. 4)or α-MSH (11-13) (SEQ. ID. […] After incubation, the culture tubes were placed on ice to stop growth, and extracellular organisms were washed twice with centrifugation at 1000-x g at 4°C. A 2.5% sodium deoxycholate solution was added to the suspension, and the tubes were shaken for five minutes. Cold distilled water was then added to obtain a suspension of 10^6 cells/ml. Two 1/100 serial dilution in HBSS were made to obtain a final suspension of 100 cells/ml. One-milliliter aliquots were then dispensed on blood agar plates and incubated for 48 hours at 37°C. Colony forming units were counted at the end of the incubation period with experiments running in triplicates and repeated using blood from five different donors.

8-13 sequence: α-MSH 8-13 sequence (RWGKPV)
antipyretic potency relative to the 11-13 sequence [1]: greater than that of the 11-13 sequence

9-13 sequence: α-MSH 9-13 sequence (WGKPV)
antipyretic potency relative to the 11-13 sequence [1]: almost devoid of activity

10-13 sequence: α-MSH(11-13) with addition of glycine to form the 10-13 sequence (GKPV)
antipyretic potency relative to the 11-13 sequence [1]: slightly decreased potency

CC(=O)N[C@@H](CSSC[C@H](NC(C)=O)C(=O)N[C@@H](CCCCN)C(=O)N1CCC[C@H]1C(=O)N[C@H](C(N)=O)C(C)C)C(=O)N[C@@H](CCCCN)C(=O)N1CCC[C@H]1C(=O)N[C@H](C(N)=O)C(C)C [KPV dimer] (I: Ac-CKPV-NH2 / II: Ac-CKPV-NH2; disulfide I:1-II:1)
S. aureus colony formation (S. aureus (ATCC 29213)): inhibited S. aureus colony formation
ability of C albicans to form colony (C. albicans [2]): greatly reduced the ability of C albicans to form colony

C[C@H]1O[C@@H](n2cnc3c(N)ncnc32)C[C@@H]1O [ddAdo, dideoxyadenosine]
effect of ddAdo on the growth inhibition of C. albicans by α-MSH (1-13) and (11-13) (C. albicans [3]): reverse the effect

CSCC[C@H](NC(C)=O)C(=O)N[C@@H](CCC(=O)O)C(=O)N[C@@H](Cc1c[nH]cn1)C(=O)N[C@@H](Cc1ccccc1)C(=O)N[C@@H](CCCNC(=N)N)C(=O)N[C@@H](Cc1c[nH]c2ccccc12)C(=O)NCC(N)=O [α-MSH (4-10), MEHFRWG]
inhibition of colony forming units (CFU) (C. albicans [2]; 48 h): approximately 50%

CC(=O)N[C@@H](Cc1c[nH]cn1)C(=O)N[C@@H](Cc1ccccc1)C(=O)N[C@@H](CCCNC(=N)N)C(=O)N[C@@H](Cc1c[nH]c2ccccc12)C(=O)NCC(=O)N[C@@H](CCCCN)C(=O)N1CCC[C@H]1C(=O)N[C@H](C(N)=O)C(C)C [α-MSH (6-13)] (Ac-HFRWGKPV-NH2)
reduction in the number of filamentous cells (C. albicans [4]): approximately 50%

CC(=O)N[C@@H](CCCCN)C(=O)N1CCC[C@H]1C(=O)N[C@H](C(N)=O)C(C)C [α-MSH (11-13), KPV] (Ac-Lys-Pro-Val-NH2)
S. aureus colony formation (S. aureus (ATCC 29213)): inhibited S. aureus colony formation
reverse transcriptase release from U1 cells (HIV-1): inhibited
cAMP content in the C. albicans (C. albicans [5]): enhanced cAMP content
reduction in the number of filamentous cells (C. albicans [4]): 54-58%
transcription of both spliced and unspliced HIV-1 RNA (HIV-1 RNA): inhibited
growth enhancing effect of urokinase on S. aureus (S. aureus): significantly countered the growth enhancing effect of urokinase
NF-κB activation (NF-κB; Figure 14, TNF-α (20ng/ml) stimulated U1 cells, four hours, peptide 10^-5 M): significantly reduced NF-κB activation
NF-κB activation (NF-κB; resting cells): did not alter NF-κB activation
neutrophil killing of C. albicans (C. albicans [6]): enhanced neutrophil killing of C. albicans
ability of C albicans to form colony (C. albicans [2]): greatly reduced the ability of C albicans to form colony
growth of C. albicans (C. albicans [2]; Figure 8, relative to control, p<0.01): significantly inhibited the growth of C. albicans

ACTH (1-39): adrenocorticotropic hormone (1-39), prepared by solid-phase peptide synthesis (SYSMEHFRWGKPVGKKRRPVKVYPNGAEDESAEAFPLEF; Corticotropin; UniProt P01189 138-176, looked up) [reference compound]
C. albicans viability (C. albicans [2]): did not reduce C. albicans viability

ACTH (18-39): ACTH fragment (18-39) (CLIP) [reference compound]
C. albicans viability (C. albicans [2]): did not reduce C. albicans viability

[Nle^4,D-Phe^7]- α-MSH
potency in reducing fever relative to the parent peptide [1]: approximately ten times more potent
